Results reported in BindingDB's records for doi:10.1016/j.bmc.2011.12.062 (The Ohio State University College of Medicine, 2012).

Assay: Displacement of thioflavin T from insulin amyloid fibrils by thioflavin-T fluorescent dye assay
In the case of `CN(C)c1ccc(/C=C/c2sc3ccccc3[n+]2CCCCCOc2ccccc2)cc1`, the IC50 is reported as 80 nM. In the case of `CCCCCCC[n+]1c(/C=C/c2ccc(N(CC)CC)cc2)sc2ccccc21`, the IC50 is reported as 120 nM. In the case of `CCCCCCC[n+]1c(/C=C/c2ccc(N(CCCC)CCCC)cc2)sc2ccccc21`, the IC50 is reported as 90 nM. For `CC[n+]1c(/C=C/c2ccc(N(C)C)cc2)sc2ccccc21`, the IC50 was 6 nM. `CN(C)c1ccc(/C=C/c2sc3ccc(Cl)cc3[n+]2C)cc1` showed an IC50 of 5.2 nM. In the case of `Cc1ccc2sc(/C=C/c3ccc(N(C)C)cc3)[n+](C)c2c1`, the IC50 is reported as 7.5 nM. With `Cc1ccc2c(c1)sc(/C=C/c1ccc(N(C)C)cc1)[n+]2C` the IC50 was 6 nM. In the case of `CN(C)c1ccc(/C=C/c2sc3cc([N+](=O)[O-])ccc3[n+]2C)cc1`, the IC50 is reported as 12 nM. Compound `CN(C)c1ccc(/N=N/c2nc3ccccc3s2)cc1` has an IC50 of 1200 nM. `COc1ccc2nc(/N=N/c3ccc(N(C)C)cc3)sc2c1` gave an IC50 of 700 nM. For `CN(C)c1ccc(/N=N/c2nc3ccc(Cl)cc3s2)cc1`, the IC50 was 1300 nM. Compound `COc1ccc2c(c1)sc(/N=N/c1ccc(N(C)C)cc1)[n+]2C` has an IC50 of 10 nM. For `CN(C)c1ccc(/N=N/c2sc3ccccc3[n+]2C)cc1`, the IC50 was 60 nM. In the case of `CN(C)c1ccc(/C=C/c2sc3ccccc3[n+]2Cc2ccccc2)cc1`, the IC50 is reported as 12 nM. Work on `CCCC[n+]1c(/C=C/c2ccc(N(C)C)cc2)sc2ccccc21` yielded an IC50 of 27 nM. For `CCCCCCC[n+]1c(/C=C/c2ccc(N(C)C)cc2)sc2ccccc21`, the IC50 was 83 nM. For `CN(C)c1ccc(/C=C/c2sc3ccc(F)cc3[n+]2Cc2ccccc2)cc1`, the IC50 was 32 nM. In the case of `Cc1ccc2c(c1)sc(/C=C/c1ccc(N(C)C)cc1)[n+]2Cc1ccccc1`, the IC50 is reported as 50 nM. With `CCCCCCC[n+]1c(/C=C/c2ccc(N(C)C)cc2)sc2cc(OC)ccc21` the IC50 was 40 nM. `CN(C)c1ccc(/C=C/c2sc3ccccc3[n+]2Cc2ccc(F)cc2)cc1` gave an IC50 of 42 nM. With `CN(C)c1ccc(/C=C/c2sc3ccccc3[n+]2Cc2ccc(-c3ccccc3)cc2)cc1` the IC50 was 34 nM. With `CN(C)c1ccc(/C=C/c2sc3ccccc3[n+]2Cc2ccccc2-c2ccccc2)cc1` the IC50 was 80 nM. Compound `CN(C)c1ccc(/C=C/c2sc3ccccc3[n+]2Cc2cccc(Oc3ccccc3)c2)cc1` has an IC50 of 180 nM. Compound `CN(C)c1ccc(/C=C/c2sc3ccccc3[n+]2C/C=C/c2ccccc2)cc1` has an IC50 of 80 nM. With `CN(C)c1ccc(/C=C/c2sc3ccccc3[n+]2CCCC(c2ccccc2)c2ccccc2)cc1` the IC50 was 210 nM. In the case of `CN(C)c1ccc(/C=C/c2sc3ccccc3[n+]2CCCOCc2ccccc2)cc1`, the IC50 is reported as 52 nM. In the case of `CCCCCCC[n+]1c(/C=C/c2ccc(-n3cccc3)cc2)sc2ccccc21`, the IC50 is reported as 42 nM. Compound `CN(C)c1ccc(/C=C/c2sc3c(Cc4ccccc4)c(Cc4ccccc4)ccc3[n+]2C)cc1` has an IC50 of 41 nM. In the case of `CN(C)c1ccc(/C=C/c2sc3ccccc3[n+]2Cc2ccc3ccccc3c2)cc1`, the IC50 is reported as 13 nM. Work on `CCCCCCC[n+]1c(/C=C/c2ccc(N(C)C)c3ccccc23)sc2ccccc21` yielded an IC50 of 40 nM. `COc1ccc2c(c1)sc(/C=C/c1ccc(N(C)C)c3ccccc13)[n+]2C` showed an IC50 of 26 nM. For `Nc1ccc(/N=N/c2nc3ccccc3s2)c2ccccc12`, the IC50 was 130 nM. `COc1ccc2nc(/N=N/c3ccc(N(C)C)c4ccccc34)sc2c1` gave an IC50 of 340 nM. With `CN(C)c1ccc(/C=C/c2sc3ccc(Cc4ccccc4)c(Cc4ccccc4)c3[n+]2C)cc1` the IC50 was 41 nM. In the case of `CN(C)c1ccc(/C=C/c2nc3cc(Cl)ccc3s2)cc1`, the IC50 is reported as > 100000 nM.
